Experimental data reported in ChEMBL document CHEMBL3588775, “Synthesis and pharmacological evaluation of N-benzyl substituted 4-bromo-2,5-dimethoxyphenethylamines as 5-HT2A/2C partial agonists” (Bioorg Med Chem, 2015).

Assays:
[1] = molecular target: T1, 5-hydroxytryptamine receptor 2A (Homo sapiens, UniProt P28223); assay: Partial agonist activity at human 5-HT2A receptor expressed in HEK293 cells preincubated for 1 hr at 37 degC followed by incubated for 15 mins at room temperature by IP-One assay relative to 5-HT; format: cell-based
T1 sequence (P28223 whole entry): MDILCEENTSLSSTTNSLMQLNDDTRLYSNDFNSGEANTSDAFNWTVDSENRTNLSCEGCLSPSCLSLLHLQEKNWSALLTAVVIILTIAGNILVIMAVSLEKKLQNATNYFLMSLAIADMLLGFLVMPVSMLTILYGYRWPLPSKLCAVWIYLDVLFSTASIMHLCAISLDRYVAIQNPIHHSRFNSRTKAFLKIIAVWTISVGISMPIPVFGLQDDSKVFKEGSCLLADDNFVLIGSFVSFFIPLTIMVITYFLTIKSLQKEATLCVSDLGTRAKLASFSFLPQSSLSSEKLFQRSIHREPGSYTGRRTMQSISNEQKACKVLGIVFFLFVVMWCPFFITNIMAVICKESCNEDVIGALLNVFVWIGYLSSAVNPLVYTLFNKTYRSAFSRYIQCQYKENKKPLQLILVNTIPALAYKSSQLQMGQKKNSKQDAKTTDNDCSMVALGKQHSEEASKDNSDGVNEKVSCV

[2] = molecular target: T2, 5-hydroxytryptamine receptor 2C (Homo sapiens) (UniProt P28335); assay: Partial agonist activity at human 5-HT2C receptor expressed in HEK293 cells preincubated for 1 hr at 37 degC followed by incubated for 15 mins at room temperature by IP-One assay relative to 5-HT; format: cell-based
T2 sequence (whole entry): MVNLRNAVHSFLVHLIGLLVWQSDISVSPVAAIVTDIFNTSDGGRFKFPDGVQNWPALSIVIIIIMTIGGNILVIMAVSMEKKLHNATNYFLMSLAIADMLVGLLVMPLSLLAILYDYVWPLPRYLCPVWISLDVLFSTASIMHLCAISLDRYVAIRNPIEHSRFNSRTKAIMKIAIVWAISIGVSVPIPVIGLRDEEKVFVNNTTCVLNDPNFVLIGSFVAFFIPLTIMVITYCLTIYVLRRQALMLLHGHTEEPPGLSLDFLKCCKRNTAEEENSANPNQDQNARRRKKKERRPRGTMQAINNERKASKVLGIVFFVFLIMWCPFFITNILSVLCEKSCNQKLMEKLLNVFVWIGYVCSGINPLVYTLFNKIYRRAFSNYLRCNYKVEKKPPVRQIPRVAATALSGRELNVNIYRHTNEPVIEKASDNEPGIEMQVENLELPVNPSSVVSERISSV

[3] = molecular target: T3, 5-hydroxytryptamine receptor 2C (Homo sapiens, UniProt P28335); assay: Partial agonist activity at human 5-HT2C receptor expressed in HEK293 cells preincubated for 1 hr at 37 degC followed by incubated for 15 mins at room temperature by IP-One assay; format: cell-based
T3 sequence (P28335 whole entry): T2 sequence (whole entry)

[4] = molecular target: T4, Serotonin 2 receptors; 5-HT2a & 5-HT2c (Homo sapiens) (UniProt P28223+P28335); assay: Selectivity for 5-HT2A receptor (unknown origin) over 5-HT2C receptor (unknown origin) by PDSP assay
T4 sequence (P28223 whole entry, looked up, one chain of several): as the sequence (P28223 whole entry) above

[5] = molecular target: T1, 5-hydroxytryptamine receptor 2A
[6] = molecular target: T3, 5-hydroxytryptamine receptor 2C; assay: Binding affinity to 5-HT2C receptor (unknown origin) by PDSP assay
[7] = molecular target: T4, Serotonin 2 receptors; 5-HT2a & 5-HT2c (Homo sapiens); assay: Selectivity for human 5-HT2A receptor over human 5-HT2C receptor by IP-One assay
[8] = molecular target: T1, 5-hydroxytryptamine receptor 2A; assay: Binding affinity to 5-HT2A receptor (unknown origin) by PDSP assay
[9] = molecular target: T5, 5-hydroxytryptamine receptor 2C (Rattus norvegicus, UniProt P08909); assay: Displacement of [3H]-Mesulergine from rat 5-HT2C receptor by PDSP assay
T5 sequence (P08909 whole entry): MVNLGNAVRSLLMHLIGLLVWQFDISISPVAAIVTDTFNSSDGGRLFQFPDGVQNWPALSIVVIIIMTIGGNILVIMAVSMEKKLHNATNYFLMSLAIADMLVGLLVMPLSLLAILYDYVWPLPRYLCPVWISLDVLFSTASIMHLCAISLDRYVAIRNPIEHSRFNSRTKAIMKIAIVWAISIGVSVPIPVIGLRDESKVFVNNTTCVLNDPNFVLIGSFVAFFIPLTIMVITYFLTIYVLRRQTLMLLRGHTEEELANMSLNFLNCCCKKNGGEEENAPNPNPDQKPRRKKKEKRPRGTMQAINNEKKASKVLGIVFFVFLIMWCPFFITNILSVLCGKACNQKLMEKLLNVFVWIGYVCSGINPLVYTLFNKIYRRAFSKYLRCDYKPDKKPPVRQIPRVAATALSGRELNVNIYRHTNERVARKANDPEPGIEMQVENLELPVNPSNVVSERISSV

[10] = molecular target: T2, 5-hydroxytryptamine receptor 2C (Homo sapiens); assay: Partial agonist activity at human 5-HT2C receptor expressed in human tsA201 cells after 30 mins by inositol phosphate turnover assay relative to 5-HT; format: functional, cell-based
[11] = molecular target: T1, 5-hydroxytryptamine receptor 2A; assay: Partial agonist activity at human 5-HT2A receptor expressed in human tsA201 cells after 30 mins by inositol phosphate turnover assay relative to 5-HT; format: functional, cell-based
[12] = molecular target: T1, 5-hydroxytryptamine receptor 2A; assay: Partial agonist activity at human 5-HT2A receptor expressed in human tsA201 cells after 30 mins by inositol phosphate turnover assay; format: functional, cell-based
[13] = molecular target: T1, 5-hydroxytryptamine receptor 2A; assay: Displacement of [3H]-Ketanserin from human 5-HT2A receptor by PDSP assay
[14] = molecular target: T3, 5-hydroxytryptamine receptor 2C; assay: Partial agonist activity at human 5-HT2C receptor expressed in human tsA201 cells after 30 mins by inositol phosphate turnover assay; format: functional, cell-based
[15] = Selectivity for human 5-HT2A receptor over rat 5-HT2C receptor by PDSP assay
[16] = molecular target: T4, Serotonin 2 receptors; 5-HT2a & 5-HT2c (Homo sapiens); assay: Selectivity for human 5-HT2A receptor over human 5-HT2C receptor by inositol phosphate turnover assay; format: functional

Row | SMILES | Selectivity ratio [4] | Ki [6] [nM] | Ki [8] [nM] | further results
1 | COc1cc(CCNCc2cccc(OC)c2F)c(OC)cc1Br | 17 | 56.2 | 3.31 | Emax [1]: 22%; Emax [2]: 16%; EC50 [3]: 282 nM; EC50 [5]: 105 nM; Selectivity ratio [7]: 2.7
2 | COc1cc(CCNCc2cccc3cn[nH]c23)c(OC)cc1Br | 2 | 24 | 12 | –
3 | COc1ccc(CNCCc2cc(OC)c(Br)cc2OC)c(OC)c1 | 1.3 | 26.9 | 20 | –
4 | COc1cc(CCNCc2cccnc2OC)c(OC)cc1Br | 0.9 | 70.8 | 79.4 | –
5 | COc1cc(CCNCc2cccc3ccoc23)c(OC)cc1Br | 4.2 | 2.51 | 0.603 | –
6 | COc1cc(CCNCc2cccc(O)c2)c(OC)cc1Br | 16 | 20.9 | 1.35 | –
7 | COc1cc(CCNCc2cccc(OC)c2OC)c(OC)cc1Br | 7.5 | 23.4 | 3.09 | –
8 | COc1cc(CCNCc2ccncc2)c(OC)cc1Br | 1.1 | 155 | 141 | –
9 | COc1cc(CCNCc2cccnc2)c(OC)cc1Br | 1.4 | 120 | 83.2 | –
10 | COc1ccc(OC)c(CNCCc2cc(OC)c(Br)cc2OC)c1 | 2.5 | 77.6 | 30.9 | –
11 | COc1cc(CCNCc2cccc3cc[nH]c23)c(OC)cc1Br | 5.1 | 66.1 | 12.9 | –
12 | COc1cc(CC(C)N)c(OC)cc1I (configuration not stated) | – | – | – | Emax [1]: 87%; Emax [2]: 119%; EC50 [3]: 45.7 nM
13 | COc1cc(CCNCc2cccc3ccsc23)c(OC)cc1Br | 4.5 | 7.76 | 1.7 | –
14 | COc1cc(CCNCc2ccccn2)c(OC)cc1Br | 1.1 | 41.7 | 38.9 | –
15 | COc1cc(CCNCc2cccc3nc[nH]c23)c(OC)cc1Br | 1.2 | 9.33 | 7.76 | –
16 | COc1cc(CCNCc2cccc3c2OCO3)c(OC)cc1Br | – | – | – | Ki [9]: 11.2 nM; Emax [10]: 84%; Emax [11]: 71%; EC50 [12]: 10.5 nM; Ki [13]: 0.603 nM; EC50 [14]: 219 nM; Selectivity ratio [15]: 18.6; Selectivity ratio [16]: 18
17 | COc1cc(CCNCc2ccccc2OC)c(OC)cc1Br | – | – | – | Selectivity ratio [15]: 100
18 | COc1cc(CCNCc2cccc3ncoc23)c(OC)cc1Br | 2.9 | 32.4 | 11 | –
19 | COc1cccc(CNCCc2cc(OC)c(Br)cc2OC)c1 | 11 | 4.68 | 0.437 | –
20 | COc1cc(CCNCc2ccc[nH]c2=O)c(OC)cc1Br | 1 | 120 | 123 | –
21 | COc1cc(CCNCc2c(OC)cccc2OC)c(OC)cc1Br | 0.06 | 17.4 | 316 | Emax [1]: 53%; Emax [2]: 33%; EC50 [3]: 87100 nM; EC50 [5]: 5370 nM; Selectivity ratio [7]: 16
22 | COc1cc(CCNCc2cccc(OC)c2O)c(OC)cc1Br | 32 | 6.31 | 0.2 | Emax [1]: 21%; Emax [2]: 52%; EC50 [3]: 15500 nM; EC50 [5]: 33.9 nM; Selectivity ratio [7]: 457
23 | COc1cc(CCNCc2cccc3c2OCC3)c(OC)cc1Br | 17 | 3.39 | 0.2 | Emax [1]: 33%; Emax [2]: 52%; EC50 [3]: 32.4 nM; EC50 [5]: 4.57 nM; Selectivity ratio [7]: 7.1
